# Entries after “also recorded” stand apart in the source; their conditions may differ. Like-named read-outs stand apart in the source and are kept apart here.
# B1: IL-10: the most important anti-inflammatory cytokine (protein, UniProt P22301 19-178, looked up)
# Interleukin-10: SPGQGTQSENSCTHFPGNLPNMLRDLRDAFSRVKTFFQMKDQLDNLLLKESLLEDFKGYLGCQALSEMIQFYLEEVMPQAENQDPDIKAHVNSLGENLKTLRLRLRRCHRFLPCENKSKAVEQVKNAFNKLQEKGIYKAMSEFDIFINYIEAYMTMKIRN
# What was measured:
# [1] = Solubility in organic solvents; assay type: physicochemical
# Text: Comparison of PLGA C3-complex-curcumin vs PLGA S-curcumin indicated the following differences. The solubilities of 99.2% S-Curcumin in all four solvents. […] This confers improved manufacturing capability, and attributes to different pharmacokinetics and pharmacodynamics in in vivo settings (Table 3). [table]
# [2] = mice, cited from earlier work; for brain cytokine levels after TBI: cytokines named in value
# cytokine release = details: cited from earlier work
# Interleukins = details: cited from earlier work
# IL-6, TNF-α and MCP-1 = details: streptozotocin rats; cited from earlier work
# coxsackie virus = details: Song et al; cited from earlier work
# [3] = test system: HIV-1, HIV-2, HSV, HPV, HTLV-1, HBV, HCV, and Japanese encephalitis virus; details: cited from earlier work
# SOCS proteins = details: cited from earlier work
# H1N1 virus = details: in culture; cited from earlier work
# EBOV(Zaire) = assay: microbe, parasite or virus in culture; assay type: cell-based; details: Zaire ebolavirus, HeLa, 48 h, read-out: EC50 (anti-EBOV activity)
# Other Key Cytokines = details: cited from earlier work
# QT interval = details: cited from earlier work
# [4] = rats, cited from earlier work; for brain / tissue cytokine levels after TBI: cytokines named in value
# IL-1β and TNF-α = details: intraperitoneal, 3 hours after injury; cited from earlier work
# [5] = cited from earlier work; for clinical outcome in patients with TBI: patient trials
# [6] = randomized phase II trial, acute stroke, vs control group; cited from earlier work
# [7] = rats; cited from earlier work
# [8] = test system: rat cerebellar granule cells; details: toxic doses of glutamate (Bachis et al); cited from earlier work
# [9] = phase II trial, 20 patients with severe TBI (Helmy et al)
molecule,measurement,setting,value
"COc1cc(/C=C/C(=O)CC(=O)/C=C/c2ccc(O)c(OC)c2)ccc1O [Batch-C100609, diferuloylmethane]",1 g of solvent solubilize in solvent,[1]; Acetone,23.6 mL
same,Conc.,[1]; Acetone,42300 µg/mL
same,Physical appearance of solubility,[1]; Acetone,Fully
same,1 g of solvent solubilize in solvent,[1]; Acetonitrile,184 mL
same,Conc.,[1]; Acetonitrile,5440 µg/mL
same,Physical appearance of solubility,[1]; Acetonitrile,Partial
same,1 g of solvent solubilize in solvent,[1]; Ethanol,263 mL
same,Conc.,[1]; Ethanol,3804 µg/mL
same,Physical appearance of solubility,[1]; Ethanol,Partial
same,1 g of solvent solubilize in solvent,[1]; Ethyl acetate,96.2 mL
same,Conc.,[1]; Ethyl acetate,10400 µg/mL
same,Physical appearance of solubility,[1]; Ethyl acetate,Partial
same,solubility compared with C3 complex,"[1]; normalized to equal concentrations, Ethanol, Ethyl acetate, Acetone, Acetonitrile",greater solubility
CC(C(=O)O)c1ccc2c(c1)[nH]c1ccc(Cl)cc12 (centres unmarked) [Carprofen],brain damage / neurological outcome after TBI,[2],improve neurological functioning
same,brain cytokine levels after TBI,[2],markedly reduce IL-1β and IL-6
"COc1cc(C=CC(=O)CC(=O)C=Cc2ccc(O)c(OC)c2)ccc1O [Curcumin, 1,7-bis(4-hydroxy-3-methoxyphenyl)-1,6-heptadiene-3,5-dione]",release of IL-1,"cytokine release; bone marrow stromal cells, colonic epithelial cells and human articular chondrocytes",block the release
same,"release of IL-2, IL-12, Interferon-γ",cytokine release,prevents release
same,release of IL-8,cytokine release; human esophageal epithelial cells and alveolar epithelial cells,block the release
same,"IL-1β, IL-8, TNF-α, MCP-1 and MIP-1α release",cytokine release; monocytes and macrophages (Abe et al),suppresses
same,"release of IL-6, IL-8, TNF-α and MCP-1",cytokine release; monocytes cultured in a high glucose environment (Jain et al),markedly reduced
same,release of IL-6,cytokine release; rheumatoid synovial fibroblasts,block the release
same,Effect on IL-1,Interleukins,↓ IL-1
same,Effect on IL-2,Interleukins,↓ IL-2
same,Effect on IL-4,Interleukins,↓ ↑ IL-4
same,Effect on IL-5,Interleukins,↓ IL-5
same,Effect on IL-6,Interleukins,↓ IL-6
same,Effect on IL-8,Interleukins,↓ IL-8
same,Effect on IL-10,Interleukins,↑ IL-10
same,Effect on IL-11,Interleukins,↓ IL-11
same,Effect on IL-12,Interleukins,↓ IL-12
same,Effect on IL-13,Interleukins,↓ IL-13
same,Effect on IL-17,Interleukins,↓ IL-17
same,"levels of IL-6, TNF-α and MCP-1","IL-6, TNF-α and MCP-1",markedly reduced
same,coxsackie virus-induced myocardial damage,coxsackie virus,protected against coxsackie virus-induced severe myocardial damage
same,"expression of IL-1β, IL-6 and TNF-α and NF-κB",coxsackie virus,reduced expression
same,activity against viruses,[3],activity against numerous viruses
same,effect on SOCS proteins,SOCS proteins,stimulate
same,activity against the H1N1 virus,H1N1 virus,specific activity
same,EC50,EBOV(Zaire),6.5 ± 0.5 µg/mL
same,Effect on GROα (CXCL1),Other Key Cytokines,↓ GROα
same,Effect on GROβ (CXCL2),Other Key Cytokines,↓ GROβ
same,Effect on IP-10 (CXCL10),Other Key Cytokines,↓ IP-10
same,Effect on Interferon γ,Other Key Cytokines,↓ Interferon γ
same,Effect on MCP-1 (CCL2),Other Key Cytokines,↓ MCP-1
same,Effect on MIP-1α (CCL3),Other Key Cytokines,↓ MIP-1α
same,Effect on SDF-1 (CXCL12),Other Key Cytokines,↓ SDF-1
same,Effect on TNF-α,Other Key Cytokines,↓ TNF-α
CCCCCCCCc1ccc(CCC(N)(CO)CO)cc1 [Fingolimod],QT interval,"QT interval; patients with relapsing multiple sclerosis, through inhibition of the hERG current",causes QT prolongation
Cc1cc(-c2ccccc2)nnc1N1CCN(c2ncccn2)CC1 [MW151],brain damage / neurological outcome after TBI,[2],improvement in neurologic functioning
same,brain cytokine levels after TBI,[2],restored abnormal cytokine levels to normal
CC(C)[C@]12O[C@H]1[C@@H]1O[C@]13[C@]1(O[C@H]1C[C@H]1C4=C(CC[C@@]13C)C(=O)OC4)[C@@H]2O [Triptolide],brain damage / neurological outcome after TBI,[4],reduce neuronal apoptosis
same,brain / tissue cytokine levels after TBI,[4],"suppress IL-1β, IL-6 and TNF-α, to increase IL-10 levels"
CC(=O)[C@H]1CC[C@H]2[C@@H]3CCC4=CC(=O)CC[C@]4(C)[C@H]3CC[C@]12C [progesterone],IL-1β and TNF-α,IL-1β and TNF-α,reduce IL-1β and TNF-α
same,favorable outcome on the Glasgow outcome scale,"[5]; SYNAPSE trial, 1195 patients with severe TBI",50.4%
same,brain damage / neurological outcome after TBI,[4],"improved motor skills, decreased cerebral edema and decreased mortality; also recorded: reducing apoptosis of brain tissue; also recorded: better results on the Neurological Severity Score Test"
same,brain / tissue cytokine levels after TBI,[4],"reduced brain levels of IL-6 at 24, 48 and 72 hours; also recorded: decreased levels of IL-1β, IL-6 and TNF-α in the brain; also recorded: reduced brain levels of TNF-α and NF-κB"
CC(C)c1nc(N(C)S(C)(=O)=O)nc(-c2ccc(F)cc2)c1/C=C/[C@@H](O)C[C@@H](O)CC(=O)O [rosuvastatin],plasma cytokine levels in patients with TBI,"[5]; 10 days of rosuvastatin, 19 patients vs 17 controls","dramatic decrease in plasma levels of TNF-α; also recorded: No effect was seen on IL-1β, IL-6 or IL-10"
same,clinical outcome in patients with TBI,[5],reduction in amnesia time; also recorded: no difference in disability at 3 months; also recorded: improvement in disability scores
IL-1RA: IL-1 receptor antagonist; human recombinant IL-1RA is a medication for rheumatoid arthritis,clinical outcome in patients with TBI,[5],unable to conclude that IL-1RA administration resulted in therapeutic benefit
same,crossing of the blood-brain barrier,[5]; [9],does cross the blood-brain barrier
same,safety,[5]; [9],safe
same,brain damage / neurological outcome after TBI,[2],reduced lesion volume
same,brain damage / neurological outcome after TBI,[4],No effect was seen at low doses; also recorded: decreased neuronal loss
same,brain / tissue cytokine levels after TBI,[4],reduced tissue IL-1β levels
same,loss of cognitive function,[6],less loss of cognitive function
"TSG-6: TNF-α stimulated gene/protein 6, an anti-inflammatory agent",brain damage / neurological outcome after TBI,[2],decreased lesion size and improved neurological recovery
etanercept,neurological function,"[5]; medical records of 617 patients with stroke and 12 with TBI, no control group (Tobinick et al)",Marked improvement in neurological function
same,brain damage / neurological outcome after TBI,[4],reduced neuronal and glial apoptosis and microglial activation; also recorded: increased 5-bromodeoxyuridine and doublecortin markers in the injured brain
same,brain / tissue cytokine levels after TBI,[4],reducing the increased levels of TNF-α
tocilizumab: an IL-6 blocker; anti-IL-6 antibody,QT interval,QT interval; patients with rheumatoid arthritis,shortening of the duration of the previously prolonged QT interval
B1,cytokines and recovery after spinal cord injury,[7],reduced TNF-α production and improved motor function
same,caspase-3 and neuronal death,[8],blocks caspase-3 and reduces neuronal death
same,brain damage / neurological outcome after TBI,[4],enhance neurological recovery; also recorded: Intracerebroventricular administration was not effective
same,brain / tissue cytokine levels after TBI,[4],reduce synthesis of IL-1
